Results as given in article PMC8165439, “Chymase Dependent Pathway of Angiotensin II Generation and Rapeseed Derived Peptides for Antihypertensive Treatment of Spontaneously Hypertensive Rats” (Frontiers in Pharmacology, 2021).

Experiments:
Type in all cases: in vivo, rat
[1] = system: anesthetized spontaneously hypertensive rats (SHR); assay: Acute infusion of chymostatin to anesthetized rats, mean arterial blood pressure; conditions: anesthetized adult SHR, chymostatin 2 mg/kg iv infusion 1 h, n = 7; decrease observed 30 min after cessation of infusion
Protocol: In acute experiments rats were anesthetized with intraperitoneal (ip) sodium thiopental (100 mg/kg; Sandoz GmbH, Kundl, Austria), which provided stable anesthesia for about 4 h. All surgical preparations were already described in detail ([Gawrys et al., 2014]; [Badzynska et al., 2020]). Throughout the experiment the temperature of the animal was kept constant (37°C). A cannula was placed in the trachea to ensure a free airway. The jugular vein was cannulated for infusion of fluids and drugs; during surgical preparations 3% bovine albumin in Ringer solution was infused at 10 ml/kg/h. For mean arterial blood pressure (MBP) measurement, a Teflon catheter was placed in the femoral artery (Stoelting Blood Pressure Meter, Wood Dale, IL, United States). After surgical preparations and stabilization of all parameters, a short control period (30 min) was made to obtain baseline for measured parameters. Chymostatin or its solvent (final concentration of DMSO was 0.05%) were administered for 1 h. After cessation of chymostatin infusion, a recovery period (30 min) was made. In the end, the animals were sacrificed by sodium thiopental overdose (iv); and vital life signs (blood pressure, breathing) were monitored until death.

[2] = system: spontaneously hypertensive rats (SHR); assay: Left ventricular hypertrophy (LV/tibia) after chronic treatment; conditions: after 14 days daily iv CH 2, RIY 7.5, VWIS 12.5 mg/kg/day, mean ± SEM, n = 5
Protocol: After the chronic experiment rats were anesthetized with sodium thiopental (100 mg/kg, ip, Sandoz GmbH, Kundl, Austria) and the heart, kidney and tibia were harvested for morphologic analysis. Additionally, left ventricular hypertrophy was assessed: the hearts were immediately harvested, dried with filter paper, and weighed. Then the left ventricle (LV) was carefully excised and weighed again. Left ventricular hypertrophy was assessed based on the ratio of LV mass to tibia length (LV/tibia).

[3] = system: spontaneously hypertensive rats (SHR); assay: Plasma and urine parameters during chronic treatment; conditions: mean ± SEM
Protocol: Systolic and diastolic blood pressure (SBP and DBP, respectively) and heart rate (HR) were measured in conscious unrestrained rats by telemetry technique, once a week for 24 h. 24 hour observations in metabolic cages (Tecniplast S. p.A. Buguggiate, Italy) were performed weekly. The diuresis, weight of feces, food and water intake were measured; urine and blood samples were collected on day 0, 7th and 14th, and were centrifuged at 1200 g (blood for 15 min and urine for 5 min), then the samples were stored at –80°C until analysis.
On day 0 all animals received saline (0.9% NaCl) and then, for 14 consecutive days, the substance tested. Chymostatin (CH, 2 mg/kg/day) was dissolved in DMSO and then diluted with PBS (final concentration of DMSO was 0.15%). Peptides RIY (7.5 mg/kg/day) and VWIS (12.5 mg/kg/day) were dissolved in saline (0.9% NaCl, S). The substances were administered through the femoral vein during 10 min in the volume of 0.5 ml to young SHR (infusion rate: 3 ml/h) and 1 ml to adult rats (infusion rate: 6 ml/h). Control rats received solvents (either DMSO or saline) in the same volume.
Urine volume was determined by gravimetric method. Sodium and potassium concentration in urine and plasma were measured by flame photometry (PFP7/C, Jenway Ltd, Stone, United Kingdom). Urine and plasma osmolality were measured by freezing point depression (Osmomat® 030 M, Gonotec, Berlin, Germany). These parameters were used to determine the excretion rates of total solutes (UosmV), sodium (UNaV) and potassium (UKV). Commercially available ELISA kits were used to measure nitric oxide metabolites (NOx, SunRed, Shanghai) and albumin (Albumin, ICL, Portland) concentration in urine. Excretion rate of NOx (UNOxV) and albumin (UAE) were calculated.

[4] = adult SHR (SHR-16), day 0 (baseline)
[5] = adult SHR (SHR-16), day 7 of daily iv treatment
[6] = adult SHR (SHR-16), day 14 of daily iv treatment
[7] = young SHR (SHR-6), day 0 (baseline)
[8] = young SHR (SHR-6), day 7 of daily iv treatment
[9] = young SHR (SHR-6), day 14 of daily iv treatment

**Q.** Which results are given for `CC(C)C[C@H](NC(=O)[C@@H](NC(=O)N[C@@H](Cc1ccccc1)C(=O)O)[C@@H]1CCN=C(N)N1)C(=O)N[C@H](C=O)Cc1ccccc1` [CH, chymostatin]?
**A.** Mean blood pressure (MBP) after single intravenous infusion [1]: decreased significantly; left ventricular hypertrophy (LV/tibia) ([2]; adult SHR): 20.7 ± 2.6 mg/mm; left ventricular hypertrophy (LV/tibia) ([2]; young SHR): 16.7 ± 0.9 mg/mm; Plasma osmolality ([3]; adult SHR (SHR-16), day 0 (baseline), CH n=5-8, RIY n=5-6, VWIS n=5-6): 307±2 mOsm/l; Plasma K+ concentration [3, 4]: 4.39 ± 0.27 mmol/L; Plasma Na+ concentration [3, 4]: 134.6 ± 2.6 mmol/L; Potassium excretion [3, 4]: 1.28 ± 0.19 µmol/min; Sodium excretion [3, 4]: 1.01 ± 0.13 µmol/min; Total solute excretion [3, 4]: 7.05±0.90 µOsm/min; Plasma osmolality ([3]; adult SHR (SHR-16), day 7 of daily iv CH 2, RIY 7.5, VWIS 12.5 mg/kg/day): 299±2 mOsm/l; Plasma K+ concentration [3, 5]: 4.21 ± 0.10 mmol/L; Plasma Na+ concentration [3, 5]: 130.5 ± 2.3 mmol/L; Potassium excretion [3, 5]: 1.24 ± 0.25 µmol/min; Sodium excretion [3, 5]: 0.77 ± 0.23 µmol/min; Total solute excretion [3, 5]: 7.11±1.34 µOsm/min; Plasma osmolality ([3]; adult SHR (SHR-16), day 14 of daily iv CH 2, RIY 7.5, VWIS 12.5 mg/kg/day): 294±5 mOsm/l; Plasma K+ concentration [3, 6]: 3.95 ± 0.20 mmol/L; Plasma Na+ concentration [3, 6]: 126.1 ± 1.0 mmol/L; Potassium excretion [3, 6]: 1.71 ± 0.15 µmol/min; Sodium excretion [3, 6]: 1.11 ± 0.33 µmol/min; Total solute excretion [3, 6]: 7.04±1.15 µOsm/min; Plasma osmolality ([3]; young SHR (SHR-6), day 0 (baseline), CH n=8-10, RIY n=5, VWIS n=5-6): 303±3 mOsm/l; Plasma K+ concentration [3, 7]: 4.34 ± 0.16 mmol/L; Plasma Na+ concentration [3, 7]: 125.8 ± 2.1 mmol/L; Potassium excretion [3, 7]: 0.48 ± 0.08 µmol/min; Sodium excretion [3, 7]: 0.51 ± 0.09 µmol/min; Total solute excretion [3, 7]: 2.94±0.68 µOsm/min; Plasma osmolality ([3]; young SHR (SHR-6), day 7 of daily iv CH 2, RIY 7.5, VWIS 12.5 mg/kg/day): 297±3 mOsm/l; Plasma K+ concentration [3, 8]: 4.61 ± 0.12 mmol/L; Plasma Na+ concentration [3, 8]: 126.0 ± 2.3 mmol/L; Potassium excretion [3, 8]: 0.95 ± 0.12 µmol/min; Sodium excretion [3, 8]: 0.90 ± 0.12 µmol/min; Total solute excretion [3, 8]: 6.05±1.16 µOsm/min; Plasma osmolality ([3]; young SHR (SHR-6), day 14 of daily iv CH 2, RIY 7.5, VWIS 12.5 mg/kg/day): 295±6 mOsm/l; Plasma K+ concentration [3, 9]: 3.98 ± 0.13 mmol/L; Plasma Na+ concentration [3, 9]: 126.0 ± 1.6 mmol/L; Potassium excretion [3, 9]: 1.01 ± 0.60 µmol/min; Sodium excretion [3, 9]: 0.93 ± 0.47 µmol/min; Total solute excretion [3, 9]: 7.82±0.47 µOsm/min
